Experimental data published in patent US20240382475A1, “Quinazoline Derivative, Or Preparation Method Therefor And Use Thereof” (Zhejiang Hisun Pharmaceutical Co., Ltd., priority 2021, published 2024).

Key:
Type in all cases: cell-based
NCI-H358 cells = assay: Inhibition of NCI-H358 cell proliferation under 3D non-anchored conditions (CellTiter-Glo 3D); conditions: Homo sapiens, NCI-H358 cells (KRAS G12C mutation), 120 hours
Protocol: The following method was used to determine the effects of the compounds of the present invention on NCI-H358 cell proliferation under three-dimensional (3D) non-anchored conditions. NCI-H358 cells (containing KRAS G12C mutation) were purchased from the Cell Resource Center of Shanghai Institutes for Biological Sciences, Chinese Academy of Sciences, and cultured in RPMI 1640 medium containing 10% fetal bovine serum, 100 U penicillin, 100 μg/mL streptomycin and 1 mM Sodium Pyruvate. The activities of the cells were determined by CellTiter-Glo® 3D Cell Viability Assay Kit (Promega, Art. No. G9683).
The experimental method was operated according to the steps in the kit instruction, which can be briefly described as follows: the test compounds were first dissolved in DMSO to prepare storage solutions of 10 mM, and then diluted with culture mediums to prepare test samples. The final concentrations of the compounds were 10000 nM to 0.15 nM. Cells in logarithmic phase were inoculated in an ultra-low adsorption 384-well cell culture plate (PerkinElmer, #3830) with 2000 cells per well, and the test compounds were added and cultured for 120 hours. After the culture was completed, 30 μL of CellTiter-Glo 3D detection solution was added to each well, shaken for 30 minutes and then stood for 120 minutes. Then, a Luminescence mode was used to read the luminescence values of each well of the samples on a microplate reader. By comparing with the numerical value of a control group (0.1% DMSO), the percentage inhibition rates of the compounds at each concentration were calculated, and the IC50 values of the compounds inhibiting cell proliferation were obtained by performing nonlinear regression analysis with logarithmic values of the compound concentration-inhibition rate by GraphPad Prism 5 software, which can be seen in Table 4.

p-ERK1/2 in DLD-1 cells = assay: Inhibition of p-ERK1/2 in DLD-1 cells (Cisbio Advanced phospho-ERK1/2 kit); conditions: Homo sapiens; DLD-1 cells (KRAS G13D mutation), hEGF 5 nM stimulation; read-out: IC50 (nM) Inhibition on p-ERK½ in DLD-1 cells
Source text: The following method was used to determine the inhibition activities of the compounds of the present invention on p-ERK1/2 in DLD-1 cells. The Advanced phospho-ERK1/2 (Thr202/tyr2O4) kit (Art. No. 64AERPEH) from Cisbio was used in this method. Please refer to the kit instruction for detailed experimental operations. DLD-1 cells (containing KRAS G13D mutation) were purchased from the Cell Resource Center of Shanghai Institutes for Biological Sciences, Chinese Academy of Sciences.
The experimental process can be briefly described as follows: DLD-1 cells were cultured in RPMI 1640 complete medium containing 10% fetal bovine serum, 100 U penicillin, 100 μg/mL streptomycin and 1 mM Sodium Pyruvate. DLD-1 cells were plated in a 96-well plate at 30,000 cells per well, after cultured overnight in 5% CO2 incubator at 37° C. with complete culture medium. The test compounds were dissolved in DMSO to prepare storage solutions of 10 mM, and then diluted with RPMI 1640 basic mediums. 90 μL of RPMI 1640 basic mediums containing the test compounds at the corresponding concentration were added to each well. The final concentrations of the test compounds in the reaction system were 10,000 nM to 0.15 nM, and were placed in a cell culture incubator for 3 hours and 40 minutes. Subsequently, 10 μL of hEGF (purchased from Roche, Art. No. 11376454001) prepared with RPMI 1640 basic medium was added to a final concentration of 5 nM, and placed in the incubator for culturing for 20 minutes. The cell supernatant was discarded, and the cells were washed with PBS on ice-bath. Then, 45 μl of 1× cell phospho/total protein lysis buffer (component of Advanced phospho-ERK1/2 kit) was added to each well for lysis. The 96-well plate was placed on ice for 0.5 hours to lyse, and then the lysate was detected according to the instruction of the Advanced phospho-ERK1/2 (Thr202/tyr2O4) kit. Finally, the microplate reader was used in […] mode to measure the fluorescence intensity of each well emitting wavelengths of 620 nm and […] under the excitation wavelength of 304 nm, and the fluorescence intensity ratio 665/620 in each well was calculated. By comparing with the fluorescence intensity ratio of a control group (0.1% DMSO), the percentage inhibition rates of the test compounds at each concentration were calculated, and the IC50 values of the compounds were obtained by performing nonlinear regression analysis with logarithmic values of the compound concentration-inhibition rate by GraphPad Prism 5 software, which can be seen in Table 3.

OCI-AML5 cells = assay: Inhibition of OCI-AML5 cell proliferation (CellTiter-Glo); conditions: Homo sapiens, OCI-AML-5; OCI-AML5 cells (SOS1 N233Y mutation), 120 hours
Procedure, shortened: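 OCI-AML5 cells (SOS1 N233Y), 1,000 per well, treated after overnight culture with compound at final 10000 nM to 0.15 nM for 120 hours at 37° C, 5% CO2. Viability read by CellTiter-Glo luminescence.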

Row | SMILES | IC50 (NCI-H358 cells) | IC50 (p-ERK1/2 in DLD-1 cells) | IC50 (OCI-AML5 cells)
1 | COc1cc2nc(C)nc(N[C@H](C)c3cccc(C#N)c3C)c2cc1N1CCOCC1 [Compound 1, (R)-3-(1-((7-methoxy-2-methyl-6-morpholinoquinazolin-4-yl)amino)ethyl)-2-methylbenzonitrile] | 78.3 nM | 48.7 nM | 46.4 nM
2 | COc1cc2nc(C)nc(N[C@H](C)c3cccc(C#N)c3C)c2cc1N1CCN(C(C)=O)CC1 [Compound 2, (R)-3-(1-((6-(4-acetylpiperazin-1-yl)-7-methoxy-2-methylquinazolin-4-yl)amino)ethyl)-2-methylbenzonitrile] | 49.6 nM | 65.4 nM | 8.4 nM
3 | COc1cc2nc(C)nc(N[C@H](C)c3cccc(C#N)c3C)c2cc1N1CCC2(CCOCC2)CC1 [Compound 4, (R)-3-(1-((7-methoxy-2-methyl-6-(3-oxa-9-azaspiro[5.5]undecan-9-yl)quinazolin-4-yl)amino)ethyl)-2-methylbenzonitrile] | 7 nM | – | 6.3 nM
4 | COc1cc2nc(C)nc(N[C@H](C)c3cccc(C#N)c3C)c2cc1N1CCC2(CC1)COC2 [Compound 5, (R)-3-(1-((7-methoxy-2-methyl-6-(2-oxa-7-azaspiro[3.5]nonan-7-yl)quinazolin-4-yl)amino)ethyl)-2-methylbenzonitrile] | 10.7 nM | 66.1 nM | 11.3 nM
5 | COc1cc2nc(C)nc(N[C@H](C)c3cccc(C#N)c3C)c2cc1N1CCC2(CCN(C)C2=O)CC1 [Compound 7, (R)-3-(1-((7-methoxy-2-methyl-6-(2-methyl-1-oxo-2,8-diazaspiro[4.5]decan-8-yl)quinazolin-4-yl)amino)ethyl)-2-methylbenzonitrile] | – | 31.1 nM | 2.7 nM
6 | COc1cc2nc(C)nc(N[C@H](C)c3cccc(C#N)c3C)c2cc1N1CCC(C#N)CC1 [Compound 8, (R)-1-(4-((1-(3-cyano-2-methylphenyl)ethyl)amino)-7-methoxy-2-methylquinazolin-6-yl)piperidine-4-carbonitrile] | – | 38.2 nM | 12 nM
7 | COc1cc2nc(C)nc(N[C@H](C)c3cccc(C#N)c3C)c2cc1N1CCC(C)(O)CC1 [Compound 11, (R)-3-(1-((6-(4-hydroxy-4-methylpiperidin-1-yl)-7-methoxy-2-methylquinazolin-4-yl)amino)ethyl)-2-methylbenzonitrile] | 71.4 nM | 29.7 nM | 13.6 nM
8 | COc1cc2nc(C)nc(N[C@H](C)c3cccc(C#N)c3C)c2cc1N1CCC2(CC1)CN(C(C)=O)C2 [Compound 19, (R)-3-(1-((6-(2-acetyl-2,7-diazaspiro[3.5]nonan-7-yl)-7-methoxy-2-methylquinazolin-4-yl)amino)ethyl)-2-methylbenzonitrile] | 21.2 nM | 46.3 nM | 16.4 nM
